Laboratory results: patent publication US9255272B2, “Use of inhibitors of leukotriene B4 receptor BLT2 for treating asthma” (Korea University Research & Business Foundation, priority 2007, dated 2016)

What was measured:
VCAM-1 = VCAM-1 expression in lung tissue (Western blot); assay type: in vivo, mouse
Description: (§1) Female BALB/c mice and C57BL/6 mice (7 weeks old; 18-20 g) were obtained from Orientbion Inc. (Seoungnam, Korea). Sensitization and challenge were carried out as described previously with some modification (28). Briefly, female C57BL/6 mice (7 weeks old; 18-20 g) were immunized by intraperitoneal (i.p.) injection of 200 μg ovalbumin (OVA) emulsified in 2.5 mg of adjuvant aluminum hydroperoxide gel (alum) (Pierce, Rockford, Ill.). A second i.p. injection of 20 μg OVA adsorbed onto alum (2.5 mg) was administered 10 days later. After an additional 10 days, mice were exposed to an aerosol of 1% OVA in saline for 30 min daily on 3 consecutive days. On day 25, mice were finally challenged by provocation with 10% OVA aerosol. For inhibition experiments, sense or antisense BLT2 (1.6 mg/kg) was injected intravenously 24 h and then 1 h before the 10% OVA challenge. The mice were then killed on day 27 to assess asthmatic phenotypes. Antisense BLT2 oligonucleotide (5′-[…]-3′ (SEQ ID NO: 15)), sense BLT2 oligonucleotide (5′-[…]-3′ (SEQ ID NO: 16)).
Alternatively, BALB/c mice were sensitized on day 1 by i.p. injection of 20 μg OVA emulsified in 2.5 mg of alum (Pierce, Rockford, Ill.), followed by an identical booster injection administered on day 14. On days 21, 22 and 23 after initial sensitization, the mice were challenged for 30 min with an aerosol of 1% OVA using an ultrasonic nebulizer. LY255283 (2.5 mg/kg) or vehicle control (DMSO) was administered intravenously 1 h before 1% OVA challenge. Mice were killed on day 25, to assess asthmatic phenotypes. 2′,7′-dichorofluorescein diacetate (DCF-DA) was purchased from Molecular Probes (Eugene, Oreg.). BSA and DMSO were from Sigma-Aldrich (St. Louis, Mo.). Acetyl-methacholine chloride was purchased from Sigma-Aldrich (St. Louis, Mo.). All other chemicals were from standard sources and were of molecular biology grade or higher. […]

OVA-challenged mice = assay: Histological analysis of lung airway inflammation in OVA-challenged mice; assay type: in vivo, mouse
Description: as §1
Alternatively, BALB/c mice were sensitized on day 1 by i.p. injection of 20 μg OVA emulsified in 2.5 mg of alum (Pierce, Rockford, Ill.), followed by an identical booster injection administered on day 14. On days 21, 22 and 23 after initial sensitization, the mice were challenged for 30 min with an aerosol of 1% OVA using an ultrasonic nebulizer. LY255283 (2.5 mg/kg) or vehicle control (DMSO) was administered intravenously 1 h before 1% OVA challenge. Mice were killed on day 25, to assess asthmatic phenotypes. 2′,7′-dichorofluorescein diacetate (DCF-DA) was purchased from Molecular Probes (Eugene, Oreg.). BSA and DMSO were from Sigma-Aldrich (St. Louis, Mo.). Acetyl-methacholine chloride was purchased from Sigma-Aldrich (St. Louis, Mo.). All other chemicals were from standard sources and were of molecular biology grade or higher. All mice were maintained and bred under specific pathogen-free conditions in the Korea University mouse facility, and experiments were conducted within the parameters of an approved protocol by the Animal Research Committee.
Inflammatory cells in the BAL fluid were collected by centrifugation (1,000 g for 3 min) and washed once in PBS. Cells were counted using a hemocytometer, and viability was assessed by trypan blue exclusion. In addition, cytospin was carried out for each BAL sample, which was then stained with Diff-Quick (Merck, Dorset, U.K.), enabling differential cell counts to be made. For histological analysis, the lungs of the mice were dissected 48 h after OVA challenge and fixed with 10% formaldehyde in PBS, dehydrated in ethanol-xylene, and embedded in paraffin. Multiple paraffin-embedded […] sections were placed on 0.5% gelatin-coated slides, deparaffinized, and stained with hematoxylin-eosin (HE). Images were acquired using a BX51 microscope (Olympus, Tokyo, Japan) equipped with a DP71 digital camera (Olympus, Tokyo, Japan).
(§2) Inflammatory cells in the BAL fluid were collected by centrifugation (1,000 g for 3 min) and washed once in PBS. Cells were counted using a hemocytometer, and viability was assessed by trypan blue exclusion. […]
as §2

[1] = BALB/c mice, LY255283 2.5 mg/kg i.v. 1 hr before 1% OVA challenge
[2] = C57BL/6 mice, antisense BLT2 1.6 mg/kg i.v. 24 hr and 1 hr before 10% OVA challenge

## CCc1cc(C(C)=O)c(O)cc1OCCCCCC(C)(C)c1nnn[nH]1 [LY255283, 1-[5-ethyl-2-hydroxy-4-[[6-methyl-6-(1H-tetrazol-5-yl)heptyl]oxy]phenyl]-ethanone, reference compound]
VCAM-1; LY255283 2.5 mg/kg 1 hr before 1% OVA challenge
  suppression of OVA-induced VCAM-1 induction in lung tissue: −60%
OVA-challenged mice; [1]
  airway obstruction and leukocyte infiltration (histology): diminished the effect
  reduction of inflammation score as compared to control: ~66%

## antisense BLT2: Antisense BLT2 oligonucleotide 5′-GCTCAGTAGTGTCTCATTCC-3′ (SEQ ID NO: 15) (listed as DNA, chemistry not fully specified)
VCAM-1; antisense BLT2 1.6 mg/kg
  suppression of OVA-induced VCAM-1 induction in lung tissue: −60%
OVA-challenged mice; [2]
  airway obstruction and leukocyte infiltration (histology): diminished
  reduction of inflammation scores as compared to control: ~67%

## antisense Rac: phosphorothioate 17-mer to the 5′ end of murine Rac mRNA, 5′-CACTTGATGGCCTGCAT-3′ (SEQ ID NO: 22) (listed as DNA, chemistry not fully specified)
VCAM-1; antisense Rac 1.25 mg/kg, tail vein
  OVA-induced VCAM-1 induction in lung tissue: suppressed this effect
OVA-challenged mice; Rac antisense i.v. 24 hr and 1 hr before 10% OVA challenge, 48 hr after challenge
  airway obstruction and leukocyte infiltration (histology): diminished the effect
